Measurements taken from US7887835B2, “Compound comprising a fluorine-substituted alkyl group and a liposome contrast medium comprising the compound” (priority 2006, dated 2011).
Like-named read-outs stand apart in the source and are kept apart here.

Key:
[1] = tested on: ICR male mice; format: in vivo
Procedure: Six-week old ICR male mice (Charles River Japan) were purchased, and after quarantine for 1 week, acclimatized for 1 week in a clean animal cage (air-conditioning: HEPA filter of class 1000, room temperature: 20 to 24° C., humidity: 35 to 60%). Then, in order to obtain the MTD value, a suspension of the test compound was administered from the caudal vein. The suspension was administered by using physiological saline (Hikari Pharmaceutical) or a glucose solution (Otsuka Pharmaceutical) as a medium. On the basis of the MTD value obtained, the suspension was administered everyday from the caudal vein for three consecutive days in an amount corresponding to ½ of the MTD value (n=3). Symptoms were observed up to 6 hours after each administration to observe neurotoxicity, and then autopsy was performed to examine major organs.
Compound (MTD (mg/kg)): neurotoxicity (“−” indicates negative for neurotoxicity, and “+” indicate positive for neurotoxicity)

[2] = tested on: vascular smooth muscle cells; assay: Introduced amount of the compounds to vascular smooth muscle cells (mixture culture with macrophage); format: cell-based; conditions: liposome PC 50 nmol + PS 50 nmol + compound, 37° C., 5% CO2, 24 hours
Procedure: The above liposome agent was added to a mixture culture system of vascular smooth muscle cells and macrophage, described in WO 01/082897, the disclosure of which is expressly incorporated by reference herein in its entirety. After cultivation under 37° C., 5% CO2 for 24 hours, the amount of the compounds introduced to the vascular smooth muscle cells were quantitated.

[3] = Preparation of liposome: maximum amount of compound forming liposome, particle size; format: physicochemical; conditions: with dipalmitoyl-PC 50 nmol + dipalmitoyl-PS 50 nmol, 0.9% physiological saline, ultrasonicated
Procedure: According to the method described in J. Med. Chem., 25 (12), 1500 (1982), the disclosure of which is expressly incorporated by reference herein in its entirety, dipalmitoyl-PC (Funakoshi, No. 1201-41-0225), dipalmitoyl-PS (Funakoshi, No. 1201-42-0237), and the compound of the present invention, in the ratio described below, were dissolved in chloroform contained in an eggplant-shaped flask to obtain a uniform solution, and then the solvent was evaporated under reduced pressure to obtain a thin membrane formed on the bottom of the flask. The thin membrane was dried in vacuo, then added with an appropriate volume of 0.9% physiological saline (Hikari Pharmaceutical, No. 512) and ultrasonicated (probe type oscillator, Branson, No. 3542, 0.1 mW) for 5 minute with ice cooling to obtain a uniform liposome dispersion. Size of the particles contained in the resulting dispersion was measured by using WBC analyzer (Nihon Kohden, A-1042). The particle sizes were 85 to 110 nm.
Liposome formulation having the ratio of PC:PS:Compound d1-6=50:50:40 (nmol), and a particle sizes of 85 to 120 nm are prepared from a chloroform solution of PC (dipalmitoyl-phosphatidylcholine Funakoshi, No. 850355C), PS (dipalmitoyl-phosphatidylserine Funakoshi, No. 840037C), and Compound d1-6.

[4] = suspension administered from the caudal vein, ICR male mice

SMILES | MTD [1, 4] [mg/kg] | Introduced amount [2] [nmol/mg protein] | Maximum amount forming liposome [3] [nmol] | MTD ([1]; mouse, in vivo) [mg/kg]
CC(C)CCC[C@@H](C)[C@H]1CC[C@H]2[C@@H]3CC=C4C[C@@H](OC(=O)Oc5cc(C(F)(F)F)cc(C(F)(F)F)c5)CC[C@]4(C)[C@H]3CC[C@]12C [Compound b1-1] | 400 | 17.5 | 40 | –
CC(C)CCC[C@@H](C)[C@H]1CC[C@H]2[C@@H]3CC=C4C[C@@H](OC(=O)CCCCCCCCCC(C)Oc5cc(C(F)(F)F)cc(C(F)(F)F)c5)CC[C@]4(C)[C@H]3CC[C@]12C (some centres unmarked) [Compound b1-8] | 400 | 8.9 | 20 | –
CC(C)CCC[C@@H](C)[C@H]1CC[C@H]2[C@@H]3CC=C4C[C@@H](OC(=O)CCC(=O)Oc5cc(C(F)(F)F)cc(C(F)(F)F)c5)CC[C@]4(C)[C@H]3CC[C@]12C [Compound b4-2] | 400 | 10.6 | 20 | –
O=C(CCCCCCCC(F)(F)C(F)(F)C(F)(F)C(F)(F)C(F)(F)C(F)(F)F)OCC(COC(=O)CN1CCOCC1)OC(=O)CCCCCCCC(F)(F)C(F)(F)C(F)(F)C(F)(F)C(F)(F)C(F)(F)F (centres unmarked) [Compound e1-6] | – | – | 40 | 400
